The term Ki denotes the dissociation constant of the complex between target and ligand, obtained from inhibition or displacement.

Several values for one entry are separate records, joined by “and”; a condition that tells them apart may be missing. Identical values can stand only once.

Among the data in ChEMBL document CHEMBL1125358, “Effect of conformational mobility and hydrogen-bonding interactions on the selectivity of some guanidinoaryl-substituted mechanism-based inhibitors of trypsin-like serine proteases” (J Med Chem, 1992) are Kd, Ki and Ka values, retold here.

The target in assay [1] is T1, Urokinase-type plasminogen activator (Homo sapiens, UniProt P00749). In words: Compound was tested for the rate constant of deacylation against Urokinase-type plasminogen activator.
In assay [2] the target is T1, Urokinase-type plasminogen activator. In words: Compound was tested for its binding affinity against the enzyme Urokinase-type plasminogen activator.
Assay [3] has as its target T2, Serine protease 1 (Bos taurus, UniProt P00760).
T2 sequence (P00760 whole entry): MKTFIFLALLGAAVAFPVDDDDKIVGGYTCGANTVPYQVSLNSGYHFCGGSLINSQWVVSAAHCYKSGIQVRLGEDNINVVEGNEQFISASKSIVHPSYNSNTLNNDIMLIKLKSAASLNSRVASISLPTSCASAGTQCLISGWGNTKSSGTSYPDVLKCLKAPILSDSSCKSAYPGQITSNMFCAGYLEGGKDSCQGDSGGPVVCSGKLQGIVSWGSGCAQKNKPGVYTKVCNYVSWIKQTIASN
Nature of the assay: Compound was tested for its binding affinity against the enzyme trypsin.

In assay [4] the target is T2, Serine protease 1. Nature of the assay: Compound was tested for the rate constant of deacylation against the enzyme trypsin.
Assay [5] addresses T3, Chymotrypsinogen A (Bos taurus, UniProt P00766). Nature of the assay: Compound was tested for the rate constant of deacylation against alpha-chymotrypsin; kd was too fast to measure.
The target in assay [6] is T3, Chymotrypsinogen A. In words: Compound was tested for its binding affinity against the enzyme alpha-chymotrypsin.
A further assay addresses T4, Trypsin II (Bos taurus) (UniProt Q29463).
T4 sequence (whole entry): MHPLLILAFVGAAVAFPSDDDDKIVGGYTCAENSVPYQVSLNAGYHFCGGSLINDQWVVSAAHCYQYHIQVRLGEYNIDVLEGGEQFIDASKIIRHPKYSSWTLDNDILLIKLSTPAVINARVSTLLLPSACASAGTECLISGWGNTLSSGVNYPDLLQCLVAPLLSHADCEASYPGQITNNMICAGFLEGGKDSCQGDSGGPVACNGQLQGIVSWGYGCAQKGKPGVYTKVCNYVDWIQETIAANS
In words: Compound was tested for the rate constant of acylation against the enzyme trypsin.

For assay [7], the target named is T1, Urokinase-type plasminogen activator. In words: Compound was tested for the rate constant of deacylation against the enzyme Urokinase-type plasminogen activator; kd was too fast to measure.
Assay [8] has the same target.
Description: Compound was tested for the rate constant of acylation against the enzyme Urokinase-type plasminogen activator
For assay [9], the target named is T5, Serine protease 1 (Bos taurus) (UniProt P00760).
T5 sequence (whole entry): T2 sequence (P00760 whole entry)

Assay [10] has as its target T6, Plasminogen (Homo sapiens, UniProt P00747). In words: Compound was tested for the rate constant of acylation against the enzyme plasmin.
Assay [11] has as its target T6, Plasminogen. In words: Compound was tested for the rate constant for deacylation against plasmin; kd was too fast to measure.
Assay [12] has as its target T6, Plasminogen. In words: Compound was tested for its binding affinity against the enzyme plasmin.
Assay [13] deals with T7, Prothrombin (Homo sapiens, UniProt P00734). Nature of the assay: Compound was tested for the rate constant of acylation against the enzyme thrombin.
Assay [14] deals with T7, Prothrombin. In words: Compound was tested for the rate constant of deacylation against thrombin.
The target in assay [15] is T7, Prothrombin. In words: Compound was tested for its binding affinity against the enzyme thrombin.
Assay [16] has as its target T1, Urokinase-type plasminogen activator. In words: Compound was tested for the rate constant of deacylation against the enzyme Urokinase-type plasminogen activator.
Assay [17] has the same target. Nature of the assay: Compound was tested for the rate constant of deacylation against Urokinase-type plasminogen activator.
In assay [18] the target is Tissue-type plasminogen activator (Homo sapiens, UniProt P00750). In words: Compound was tested for its binding affinity against the enzyme Tissue plasminogen activator.
Chain of Tissue-type plasminogen activator (P00750 whole entry): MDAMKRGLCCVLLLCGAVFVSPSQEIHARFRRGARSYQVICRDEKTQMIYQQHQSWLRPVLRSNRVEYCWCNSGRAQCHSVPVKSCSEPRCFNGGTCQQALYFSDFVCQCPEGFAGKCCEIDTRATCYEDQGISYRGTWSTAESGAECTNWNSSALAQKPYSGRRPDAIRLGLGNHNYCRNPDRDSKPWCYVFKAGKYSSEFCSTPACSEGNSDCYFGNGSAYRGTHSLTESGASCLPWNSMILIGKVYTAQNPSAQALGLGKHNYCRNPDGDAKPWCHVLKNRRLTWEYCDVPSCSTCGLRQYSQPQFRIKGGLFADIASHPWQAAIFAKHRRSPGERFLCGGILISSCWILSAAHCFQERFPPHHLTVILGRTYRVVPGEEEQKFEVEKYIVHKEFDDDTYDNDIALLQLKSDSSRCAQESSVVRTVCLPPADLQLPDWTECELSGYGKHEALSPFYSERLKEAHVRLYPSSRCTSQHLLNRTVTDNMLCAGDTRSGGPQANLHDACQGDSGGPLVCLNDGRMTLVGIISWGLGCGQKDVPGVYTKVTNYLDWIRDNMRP

T6 sequence (P00747 97-580 limits assumed): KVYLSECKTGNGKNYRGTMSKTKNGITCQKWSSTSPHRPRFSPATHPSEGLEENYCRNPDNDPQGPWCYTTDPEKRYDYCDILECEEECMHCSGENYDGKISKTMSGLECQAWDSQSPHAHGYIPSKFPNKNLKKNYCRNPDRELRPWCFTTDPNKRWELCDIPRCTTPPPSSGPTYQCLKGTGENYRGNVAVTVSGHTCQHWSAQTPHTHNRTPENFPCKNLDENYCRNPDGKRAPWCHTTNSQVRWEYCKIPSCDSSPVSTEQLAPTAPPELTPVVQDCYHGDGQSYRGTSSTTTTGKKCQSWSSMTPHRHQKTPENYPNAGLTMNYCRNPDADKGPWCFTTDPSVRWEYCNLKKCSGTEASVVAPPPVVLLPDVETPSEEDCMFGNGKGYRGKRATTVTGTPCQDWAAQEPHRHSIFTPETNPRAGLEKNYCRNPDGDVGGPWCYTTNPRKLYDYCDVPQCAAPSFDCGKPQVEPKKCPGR
T6 sequence (P00747 581-810 limits assumed): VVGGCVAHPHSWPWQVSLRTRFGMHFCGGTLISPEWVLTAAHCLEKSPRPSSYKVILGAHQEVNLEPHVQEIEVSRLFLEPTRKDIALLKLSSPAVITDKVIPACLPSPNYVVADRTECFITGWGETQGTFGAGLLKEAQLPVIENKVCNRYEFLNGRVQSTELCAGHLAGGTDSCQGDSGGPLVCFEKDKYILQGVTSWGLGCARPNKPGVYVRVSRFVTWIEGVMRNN

As to `C=C1CC(c2ccc(NC(=N)N)cc2)CC(=O)O1` (centres undefined), the figures for the Kd (in assay [1]; on Serine protease 1 [4]) were 0.00015 s⁻¹ and 3.3e-05 s⁻¹, respectively. Further, the Ki in assay [2] came to 120 nM; at Serine protease 1 [3], 9400 nM.
For the compound `C=C1CC(c2ccc(NC(=N)N)cc2)C(NC(=O)c2ccccc2)C(=O)O1` (centres undefined), the figures for the Kd (in [1]; on Chymotrypsinogen A [5]; at Serine protease 1 [4]) were 3.3e-05 s⁻¹, “Fast” and 0.00025 s⁻¹, respectively. Moreover, the values for the Ki at Chymotrypsinogen A [6] and on Serine protease 1 [3] were 460 nM and 10000 nM, respectively. At Trypsin II (Bos taurus), this compound had a Ka of 10.2 min⁻¹.
With `N=C(N)Nc1ccc(C2CC(=O)O/C(=C\I)C2)cc1` (centres undefined), the Kd result in [7] was “Fast”; on Serine protease 1 [4], 0.00033 s⁻¹. Moreover, the values for the Ki (in assay [2]; on Serine protease 1 [3]) were 7830 nM and 4280 nM, respectively. The Ka in [8] was determined as 2.61 min⁻¹; in assay [9] it was 0.54 min⁻¹.
`C=C1CCC(c2ccc(CNC(=N)N)cc2)C(=O)O1` (centres undefined): the results for the Ka (on Plasminogen [10]; on Prothrombin [13]; in assay [8]) were 57 min⁻¹, 5.58 min⁻¹ and 9.8 min⁻¹, respectively. Also, the Kd entry is “Fast” on Plasminogen [11], 0.0001 s⁻¹ on Prothrombin [14] and 0.000733 s⁻¹ in assay [16]. Moreover, the Ki on Plasminogen [12] worked out at 466000 nM; on Prothrombin [15], 37900 nM; in assay [2], 350 nM.
Consider `N=C(N)Nc1ccc(C2C/C(=C/I)OC(=O)C2NC(=O)c2ccccc2)cc1` (centres undefined), for which the results for the Kd in assay [16] and in assay [17] were 1.33e-05 s⁻¹ and 1.3e-05 s⁻¹, respectively. Further, the Ki in assay [2] was 18700 nM; on Chymotrypsinogen A [6] it was 170 nM; at Serine protease 1 [3], 670 nM and 2760 nM.
Consider `N=C(N)NCc1ccc(C2CC/C(=C/I)OC2=O)cc1` (centres undefined), for which the Ka on Plasminogen [10] is 10.2 min⁻¹; at Prothrombin [13] it was 27.2 min⁻¹; in assay [8] it was 7.56 min⁻¹; in assay [9], 18.4 min⁻¹. Besides, the inhibition constant (Ki) at Plasminogen [12] was found to be 1190 nM; at Prothrombin [15], 14800 nM; in assay [18], 120 nM; on Serine protease 1 [3], 80 nM. The Kd on Prothrombin [14] was 0.000217 s⁻¹.
